Laboratory results published in patent US20250206732A1, “COMPOUNDS AND METHODS FOR THE TARGETED DEGRADATION OF KRAS” (Arvinas Operations, Inc., priority 2022, published 2025).

Biological target: T1, AsPC-1 HiBiT-KRASG12D (Homo sapiens, UniProt P01116, G12D)
T1 construct: insert the HiBiT tag onto the N-terminus of one or more of the endogenous KRAS alleles; endogenous in cells; host or cells: AsPC-1 (ATCC CRL-1682), CRISPR-Cas9 knock-in clone, one tagged allele
Assay: HiBiT degradation assay (G12D), AsPC-1 HiBiT-KRASG12D cells
Format: cell-based
Conditions: 24 hours treatment; for Dmax: ASPC1, AsPC-1 HiBiT-KRASG12D cells, maximum degradation observed; for DC50: AsPC-1 HiBiT-KRASG12D cells, HiBiT luminescence
In short: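 In this degradation format, an engineered AsPC-1 clone with HiBiT fused to the KRAS N-terminus is exposed to compounds for 24 hours, after which remaining tagged protein is quantified by lytic HiBiT luminescence.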

T1 sequence (P01116 1-188 isoform P01116-2 G12D): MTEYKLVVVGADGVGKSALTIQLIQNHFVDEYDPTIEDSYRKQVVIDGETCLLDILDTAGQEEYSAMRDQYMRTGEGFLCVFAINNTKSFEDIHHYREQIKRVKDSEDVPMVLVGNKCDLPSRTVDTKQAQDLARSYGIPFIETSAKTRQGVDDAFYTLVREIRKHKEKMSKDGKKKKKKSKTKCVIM

| SMILES | Dmax [%] | DC50 [nM] |
| --- | --- | --- |
| CCc1cccc2cc(O)cc(-c3ncc4c(N5CC6CCC(C5)N6)nc(OC[C@@]56CCCN5[C@H](COC(=O)N5CC7(C5)CN(c5cc([C@H](C(=O)N8C[C@H](O)C[C@H]8C(=O)N[C@@H](C)c8ccc(-c9scnc9C)cc8)C(C)C)on5)C7)CC6)nc4c3F)c12 [Compound 112, [(3S,7aS)-7a-{[(4-{3,8-diazabicyclo[3.2.1]octan-3-yl}-7-(8-ethyl-3-hydroxynaphthalen-1-yl)-8-fluoropyrido[4,3-d]pyrimidin-2-yl)oxy]methyl}-hexahydro-1H-pyrrolizin-3-yl]methyl 6-{5-[(2R)-1-[(2S,4R)-4-hydroxy-2-{[(1S)-1-[4-(4-methyl-1,3-thiazol-5-yl)phenyl]ethyl]carbamoyl}pyrrolidin-1-yl]-3-methyl-1-oxobutan-2-yl]-1,2-oxazol-3-yl}-2,6-diazaspiro[3.3]heptane-2-carboxylate] | 80 to 100 | < 600 |
| CCc1cccc2cc(O)cc(-c3ncc4c(N5CC6CCC(C5)N6)nc(OC[C@@]56CCCN5[C@H](COc5cc([C@H](C(=O)N7C[C@H](O)C[C@H]7C(=O)N[C@@H](C)c7ccc(-c8scnc8C)cc7)C(C)C)on5)CC6)nc4c3F)c12 [Compound 29, (2S,4R)-1-[(2R)-2-(3-{[(3S,7aS)-7a-{[(4-{3,8-diazabicyclo[3.2.1]octan-3-yl}-7-(8-ethyl-3-hydroxynaphthalen-1-yl)-8-fluoropyrido[4,3-d]pyrimidin-2-yl)oxy]methyl}-hexahydro-1H-pyrrolizin-3-yl]methoxy}-1,2-oxazol-5-yl)-3-methylbutanoyl]-4-hydroxy-N-[(1S)-1-[4-(4-methyl-1,3-thiazol-5-yl)phenyl]ethyl]pyrrolidine-2-carboxamide] | 80 to 100 | < 600 |
| CCc1cccc2cc(O)cc(-c3ncc4c(N5CC6CCC(C5)N6)nc(OC[C@]56CCCN5[C@H](COC(=O)N5CCN(c7cc([C@H](C(=O)N8C[C@H](O)C[C@H]8C(=O)N[C@@H](C)c8ccc(C#N)cc8)C(C)C)on7)CC5)CC6)nc4c3F)c12 [Compound 66, [(3S,7aR)-7a-{[(4-{3,8-diazabicyclo[3.2.1]octan-3-yl}-7-(8-ethyl-3-hydroxynaphthalen-1-yl)-8-fluoropyrido[4,3-d]pyrimidin-2-yl)oxy]methyl}-hexahydro-1H-pyrrolizin-3-yl]methyl 4-{5-[(2R)-1-[(2S,4R)-2-{[(1S)-1-(4-cyanophenyl)ethyl]carbamoyl}-4-hydroxypyrrolidin-1-yl]-3-methyl-1-oxobutan-2-yl]-1,2-oxazol-3-yl}piperazine-1-carboxylate] | 60 to 80 | < 600 |
| CCc1cccc2cc(O)cc(-c3ncc4c(N5CC6CCC(C5)N6)nc(OC[C@@]56CCCN5[C@H](COC(=O)N5C[C@@H](C)N(c7cc([C@H](C(=O)N8C[C@H](O)C[C@H]8C(=O)N[C@@H](C)c8ccc(-c9scnc9C)cc8)C(C)C)on7)C[C@@H]5C)CC6)nc4c3F)c12 (stereo in doubt) [Compound 299, [(3S,8R)-8-[[4-(3,8-diazabicyclo[3.2.1]octan-3-yl)-7-(8-ethyl-3-hydroxy-1-naphthyl)-8-fluoro-pyrido[4,3-d]pyrimidin-2-yl]oxymethyl]-1,2,3,5,6,7-hexahydropyrrolizin-3-yl]methyl (2S,5R)-4-[5-[(1R)-1-[(2S,4R)-4-hydroxy-2-[[(1S)-1-[4-(4-methylthiazol-5-yl)phenyl]ethyl]carbamoyl]pyrrolidine-1-carbonyl]-2-methyl-propyl]isoxazol-3-yl]-2,5-dimethyl-piperazine-1-carboxylate] | 80 to 100 | < 600 |
| CCc1cccc2cccc(-c3ncc4c(N5CC6CCC(C5)N6)nc(OC[C@]56CCCN5[C@H](COc5cc([C@@H](C(=O)N7C[C@H](O)C[C@H]7C(=O)N[C@@H](C)c7ccc(-c8scnc8C)cc7)C(C)C)on5)CC6)nc4c3F)c12 [Compound 310, (2S,4R)-1-[(2S)-2-[3-[[(3S,8R)-8-[[4-(3,8-diazabicyclo[3.2.1]octan-3-yl)-7-(8-ethyl-1-naphthyl)-8-fluoro-pyrido[4,3-d]pyrimidin-2-yl]oxymethyl]-1,2,3,5,6,7-hexahydropyrrolizin-3-yl]methoxy]isoxazol-5-yl]-3-methyl-butanoyl]-4-hydroxy-N-[(1S)-1-[4-(4-methylthiazol-5-yl)phenyl]ethyl]pyrrolidine-2-carboxamide] | 80 to 100 | < 600 |
| C#Cc1c(F)ccc2cc(O)cc(-c3ncc4c(N5CC6CCC(C5)N6)nc(OCCN5CCC6(CC5)CC(Oc5cc([C@@H](C(=O)N7C[C@H](O)C[C@H]7C(=O)N[C@@H](C)c7ccc(-c8scnc8C)cc7)C(C)C)on5)C6)nc4c3F)c12 [Compound 159, (2S,4R)-1-[(2S)-2-{3-[(7-{2-[(4-{3,8-diazabicyclo[3.2.1]octan-3-yl}-7-(8-ethynyl-7-fluoro-3-hydroxynaphthalen-1-yl)-8-fluoropyrido[4,3-d]pyrimidin-2-yl)oxy]ethyl}-7-azaspiro[3.5]nonan-2-yl)oxy]-1,2-oxazol-5-yl}-3-methylbutanoyl]-4-hydroxy-N-[(1S)-1-[4-(4-methyl-1,3-thiazol-5-yl)phenyl]ethyl]pyrrolidine-2-carboxamide] | 60 to 80 | < 600 |
| CCc1cccc2cc(O)cc(-c3ncc4c(N5CC6CCC(C5)N6)nc(OC[C@]56CCCN5[C@H](COC(=O)N5C[C@H](C)N(c7cc([C@@H](C(=O)N8C[C@H](O)C[C@H]8C(=O)N[C@@H](C)c8ccc(-c9scnc9C)cc8)C(C)C)on7)C[C@H]5C)CC6)nc4c3F)c12 [Compound 302, [(3S,8R)-8-[[4-(3,8-diazabicyclo[3.2.1]octan-3-yl)-7-(8-ethyl-3-hydroxy-1-naphthyl)-8-fluoro-pyrido[4,3-d]pyrimidin-2-yl]oxymethyl]-1,2,3,5,6,7-hexahydropyrrolizin-3-yl]methyl (2R,5S)-4-[5-[(1S)-1-[(2S,4R)-4-hydroxy-2-[[(1S)-1-[4-(4-methylthiazol-5-yl)phenyl]ethyl]carbamoyl]pyrrolidine-1-carbonyl]-2-methyl-propyl]isoxazol-3-yl]-2,5-dimethyl-piperazine-1-carboxylate] | 20 to 60 | 1000 to 3000 |
| Cc1ncsc1-c1ccc([C@H](C)NC(=O)[C@@H]2C[C@@H](O)CN2C(=O)[C@@H](c2cc(OC[C@@H]3CC[C@]4(COc5nc(N6CC7CCC(C6)N7)c6cnc(-c7cc(O)cc(Cl)c7C7CC7)c(F)c6n5)CCCN34)no2)C(C)C)cc1 [Compound 64, (2S,4R)-1-[(2R)-2-(3-{[(3S,7aS)-7a-({[7-(3-chloro-2-cyclopropyl-5-hydroxyphenyl)-4-{3,8-diazabicyclo[3.2.1]octan-3-yl}-8-fluoropyrido[4,3-d]pyrimidin-2-yl]oxy}methyl)-hexahydro-1H-pyrrolizin-3-yl]methoxy}-1,2-oxazol-5-yl)-3-methylbutanoyl]-4-hydroxy-N-[(1S)-1-[4-(4-methyl-1,3-thiazol-5-yl)phenyl]ethyl]pyrrolidine-2-carboxamide] | 20 to 60 | < 600 |
| CCc1cccc2cc(O)cc(-c3ncc4c(N5CC6CCC(C5)N6)nc(OCCN5CCC(CN6CCN(c7cnc(C(=O)N[C@H](C(=O)N8C[C@H](O)C[C@H]8C(=O)N[C@@H](C)c8ccc(-c9scnc9C)cc8)C(C)(C)C)cn7)CC6)CC5)nc4c3F)c12 [Compound 293] | 60 to 80 | < 600 |
